Molecular target: IRAK4 (Homo sapiens (Human), UniProt Q9NWZ3)
Experiment: In vitro IRAK4 phosphorylation activity assay
Format: biochemical
Details: [γ-33P]-ATP, myelin basic protein substrate, 40 minutes at room temperature; categories
Description: In vitro IRAK4 analysis was performed using N-(1H-imidazol-2-yl)benzamide compounds according to the present invention. All compounds were prepared by dissolving in DMSO. N-(1H-imidazol-2-yl)benzamide compound according to the present invention and other elements for the reaction were added to an assay well. In the standard Kinase Profiler service the preincubation step between the N-(1H-imidazol-2-yl)benzamide compound and kinase was not performed before the reaction.
To the positive control well, all reactants except for the N-(1H-imidazol-2-yl)benzamide compound according to the present invention were added, and DMSO was added to remove the solvent effect. A known control inhibitor having the following structure was added to the blank wells to inhibit kinase activity and establish a base-line.
IRAK4 was incubated with 8 mM MOPS pH 7.0, 0.2 mM EDTA, 0.33 mg/mL myelin basic protein, 10 mM magnesium acetate and [γ-33P]-ATP (specific activity approx. 500 cpm/pmol, concentration as required). The reaction was initiated by the addition of the MgATP mix. After incubation for 40 minutes at room temperature, the reaction was stopped by the addition of 3% phosphoric acid solution. 10 μL of the reaction was then spotted onto a P30 filtermat and washed three times for 5 minutes in 75 mM phosphoric acid and once in methanol prior to drying and scintillation counting.
The results are shown in Table 26 below, where the phosphorylation activity of IC50 values for IRAK4 is shown in categories (A: <50 nM, B: 50-100 nM, C: >100 nM).

Sequence of IRAK4 (Q9NWZ3 whole entry): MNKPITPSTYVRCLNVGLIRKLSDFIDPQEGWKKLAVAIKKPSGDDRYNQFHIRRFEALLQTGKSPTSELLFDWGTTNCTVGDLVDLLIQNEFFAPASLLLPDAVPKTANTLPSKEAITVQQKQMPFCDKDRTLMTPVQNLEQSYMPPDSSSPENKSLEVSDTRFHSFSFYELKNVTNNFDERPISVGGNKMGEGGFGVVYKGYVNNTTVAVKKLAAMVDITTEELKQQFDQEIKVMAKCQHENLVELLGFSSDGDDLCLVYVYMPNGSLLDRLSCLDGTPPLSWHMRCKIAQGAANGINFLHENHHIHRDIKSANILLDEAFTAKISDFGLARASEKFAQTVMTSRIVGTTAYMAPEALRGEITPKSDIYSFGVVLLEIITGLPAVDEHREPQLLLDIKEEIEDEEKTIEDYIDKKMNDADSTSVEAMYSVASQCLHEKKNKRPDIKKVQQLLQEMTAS

Compound | IC50 [nM]
O=C(Nc1nc(CCC(=O)N2CCCC(C(=O)O)C2)cn1-c1ccccc1)c1cccc(-c2cn[nH]c2)c1 [Example 36, (S)-1-(3-(2-(3-(1H-pyrazol-4-yl)benzamido)-1-phenyl-1H-imidazol-4-yl)propanoyl)piperidine-3-carboxylic acid] | < 50
O=C(O)CCCCCc1cn(-c2ccccc2)c(NC(=O)c2cccc(-c3cn[nH]c3)c2)n1 [Example 92, 6-(2-(3-(1H-pyrazol-4-yl)benzamido)-1-phenyl-1H-imidazol-4-yl)hexanoic acid] | < 50
Nc1ccc(-c2cccc(C(=O)Nc3nc(CCCCCCNC(=O)C4CC4)cn3-c3ccccc3)c2)cn1 [Example 278, 3-(6-aminopyridin-3-yl)-N-(4-(6-(cyclopropanecarboxamido)hexyl)-1-phenyl-1H-imidazol-2-yl)benzamide] | < 50
O=C(Nc1nc(CCCCCCN2CCCCC2)cn1-c1ccc(F)cc1)c1cccc(-c2cn[nH]c2)c1 [Example 301, N-(1-(4-fluorophenyl)-4-(6-(piperidin-1-yl)hexyl)-1H-imidazol-2-yl)-3-(1H-pyrazol-4-yl)benzamide] | < 50
O=C(CCCCc1cn(-c2ccccc2)c(NC(=O)c2cccc(-c3cn[nH]c3)c2)n1)Nc1ccccc1 [Example 76, N-(4-(5-oxo-5-(phenylamino)pentyl)-1-phenyl-1H-imidazol-2-yl)-3-(1H-pyrazol-4-yl)benzamide] | < 50
CN(C(=O)CCCc1cn(-c2ccccc2)c(NC(=O)c2cccc(-c3cn[nH]c3)c2)n1)C1CC1 [Example 71, N-(4-(4-(cyclopropyl(methyl)amino)-4-oxobutyl)-1-phenyl-1H-imidazol-2-yl)-3-(1H-pyrazol-4-yl)benzamide] | < 50
O=C(Nc1nc(CCCC(=O)N2CCCCC2)cn1-c1ccccc1)c1cccc(-c2cn[nH]c2)c1 [Example 59, N-(4-(4-oxo-4-(piperidin-1-yl)butyl)-1-phenyl-1H-imidazol-2-yl)-3-(1H-pyrazol-4-yl)benzamide] | < 50
CNC(=O)Cc1cn(-c2ccccc2)c(NC(=O)c2cccnc2)n1 [Example 51, N-(4-(2-(methylamino)-2-oxoethyl)-1-phenyl-1H-imidazol-2-yl)nicotinamide] | > 100
Cn1cc(-c2cccc(C(=O)Nc3nc(CCC(=O)N4CCNCC4)cn3-c3ccccc3)c2)cn1 [Example 203, 3-(1-methyl-1H-pyrazol-4-yl)-N-(4-(3-oxo-3-(piperazin-1-yl)propyl)-1-phenyl-1H-imidazol-2-yl)benzamide] | 50 to 100
CN(C)CCNC(=O)CCCc1cn(-c2ccccc2)c(NC(=O)c2cccc(-c3cnn(C)c3)c2)n1 [Example 162, N-(4-(4-((2-(dimethylamino)ethyl)amino)-4-oxobutyl)-1-phenyl-1H-imidazol-2-yl)-3-(1-methyl-1H-pyrazol-4-yl)benzamide] | 50 to 100
O=C(Nc1nc(CCO)cn1-c1ccccc1)c1cccc(-c2cn[nH]c2)c1 [Example 103, N-(4-(2-hydroxyethyl)-1-phenyl-1H-imidazol-2-yl)-3-(1H-pyrazol-4-yl)benzamide] | < 50
COC[C@@H]1CCCN1NC(=O)CCCc1cn(-c2ccccc2)c(NC(=O)c2cccc(-c3cn[nH]c3)c2)n1 [Example 53, (S)—N-(4-(4-((2-(methoxymethyl)pyrrolidin-1-yl)amino)-4-oxobutyl)-1-phenyl-1H-imidazol-2-yl)-3-(1H-pyrazol-4-yl)benzamide] | < 50
O=C(Nc1nc(CCCCCCN2CCCC2=O)cn1-c1ccccc1)c1cccc(-c2ccc3[nH]ncc3c2)c1 [Example 259, 3-(1H-indazol-5-yl)-N-(4-(6-(2-oxopyrrolidin-1-yl)hexyl)-1-phenyl-1H-imidazol-2-yl)benzamide] | < 50
O=C(Nc1nc(CCCN2CCCCC2)cn1-c1ccccc1)c1cccc(-c2cn[nH]c2)c1 [Example 106, N-(1-phenyl-4-(3-(piperidin-1-yl)propyl)-1H-imidazol-2-yl)-3-(1H-pyrazol-4-yl)benzamide] | < 50
COC[C@H]1CCCN1NC(=O)CCCCc1cn(-c2ccccc2)c(NC(=O)c2cccc(-c3cn[nH]c3)c2)n1 [Example 85, (R)—N-(4-(5-((2-(methoxymethyl)pyrrolidin-1-yl)amino)-5-oxopentyl)-1-phenyl-1H-imidazol-2-yl)-3-(1H-pyrazol-4-yl)benzamide] | < 50
CC(=O)N1CCN(C(=O)CCCc2cn(-c3ccccc3)c(NC(=O)c3cccc(-c4cnn(C)c4)c3)n2)CC1 [Example 205, N-(4-(4-(4-acetylpiperazin-1-yl)-4-oxobutyl)-1-phenyl-1H-imidazol-2-yl)-3-(1-methyl-1H-pyrazol-4-yl)benzamide] | < 50

Compound | IC50 [nM]
CN1CCN(C(=O)CCCCCc2cn(-c3ccccc3)c(NC(=O)c3cccc(-c4ccc(N)nc4)c3)n2)CC1 [Example 272, 3-(6-aminopyridin-3-yl)-N-(4-(6-(4-methylpiperazin-1-yl)-6-oxohexyl)-1-phenyl-1H-imidazol-2-yl)benzamide] | < 50
O=C(CCc1cn(-c2ccccc2)c(NC(=O)c2cccc(-c3cn[nH]c3)c2)n1)Nc1ccccc1 [Example 6, N-(4-(3-oxo-3-(phenylamino)propyl)-1-phenyl-1H-imidazol-2-yl)-3-(1H-pyrazol-4-yl)benzamide] | < 50
Cn1cc(-c2cccc(C(=O)Nc3nc(CCCC(=O)N4CCCC(F)(F)C4)cn3-c3ccccc3)c2)cn1 [Example 175, N-(4-(4-(3,3-difluoropiperidin-1-yl)-4-oxobutyl)-1-phenyl-1H-imidazol-2-yl)-3-(1-methyl-1H-pyrazol-4-yl)benzamide] | < 50
COC[C@H]1CCCN1NC(=O)CCCc1cn(-c2ccccc2)c(NC(=O)c2cccc(-c3cn[nH]c3)c2)n1 [Example 54, (R)—N-(4-(4-((2-(methoxymethyl)pyrrolidin-1-yl)amino)-4-oxobutyl)-1-phenyl-1H-imidazol-2-yl)-3-(1H-pyrazol-4-yl)benzamide] | < 50
O=C(CCCc1cn(-c2ccccc2)c(NC(=O)c2cccc(-c3cnn(CF)c3)c2)n1)NC1CC1 [Example 234, N-(4-(4-(cyclopropylamino)-4-oxobutyl)-1-phenyl-1H-imidazol-2-yl)-3-(1-(fluoromethyl)-1H-pyrazol-4-yl)benzamide] | < 50
CC(C)N1CCN(C(=O)CCCc2cn(-c3ccccc3)c(NC(=O)c3cccc(-c4cnn(C)c4)c3)n2)CC1 [Example 145, N-(4-(4-(4-isopropylpiperazin-1-yl)-4-oxobutyl)-1-phenyl-1H-imidazol-2-yl)-3-(1-methyl-1H-pyrazol-4-yl)benzamide] | < 50
COC(=O)CCCCc1cn(-c2ccccc2)c(NC(=O)c2cccc(-c3cn[nH]c3)c2)n1 [Example 77, methyl 5-(2-(3-(1H-pyrazol-4-yl)benzamido)-1-phenyl-1H-imidazol-4-yl)pentanoate] | < 50
CN1CCN(C(=O)CCc2cn(-c3ccccc3)c(NC(=O)c3cccc(-c4cnn(C)c4)c3)n2)CC1 [Example 194, 3-(1-methyl-1H-pyrazol-4-yl)-N-(4-(3-(4-methylpiperazin-1-yl)-3-oxopropyl)-1-phenyl-1H-imidazol-2-yl)benzamide] | < 50
O=C(CCc1cn(-c2ccccc2)c(NC(=O)c2cccc(-c3cn[nH]c3)c2)n1)Nc1cnccn1 [Example 22, N-(4-(3-oxo-3-(pyrazin-2-ylamino)propyl)-1-phenyl-1H-imidazol-2-yl)-3-(1H-pyrazol-4-yl)benzamide] | > 100
Cn1cc(-c2cccc(C(=O)Nc3nc(CCCC(=O)N4CCOCC4)cn3-c3ccccc3)c2)cn1 [Example 160, 3-(1-methyl-1H-pyrazol-4-yl)-N-(4-(4-morpholino-4-oxobutyl)-1-phenyl-H-imidazol-2-yl)benzamide] | < 50
CNC(=O)Cc1cn(-c2ccccc2)c(NC(=O)c2cccc(-c3cn[nH]c3)c2)n1 [Example 41, N-(4-(2-(methylamino)-2-oxoethyl)-1-phenyl-1H-imidazol-2-yl)-3-(1H-pyrazol-4-yl)benzamide] | > 100
Cn1cc(-c2cccc(C(=O)Nc3nc(CCCC(=O)N4CCN(Cc5ccc(OC(F)(F)F)cc5)CC4)cn3-c3ccccc3)c2)cn1 [Example 173, 3-(1-methyl-1H-pyrazol-4-yl)-N-(4-(4-oxo-4-(4-(4-(trifluoromethoxy)benzyl)piperazin-1-yl)butyl)-1-phenyl-1H-imidazol-2-yl)benzamide] | 50 to 100
O=C(Nc1nc(CCC(=O)N2CCCCC2)cn1-c1ccccc1)c1cccc(-c2cn[nH]c2)c1 [Example 12, N-(4-(3-oxo-3-(piperidin-1-yl)propyl)-1-phenyl-1H-imidazol-2-yl)-3-(1H-pyrazol-4-yl)benzamide] | < 50
CN1CCN(C(=O)CCCCCc2cn(-c3ccccc3)c(NC(=O)c3cccc(-c4ccc5ncsc5c4)c3)n2)CC1 [Example 285, 3-(benzo[d]thiazol-6-yl)-N-(4-(6-(4-methylpiperazin-1-yl)-6-oxohexyl)-1-phenyl-1H-imidazol-2-yl)benzamide] | < 50
O=C(CCc1cn(-c2ccccc2)c(NC(=O)c2cncc(-c3cn[nH]c3)c2)n1)Nc1ccccc1 [Example 4, N-(4-(3-oxo-3-(phenylamino)propyl)-1-phenyl-1H-imidazol-2-yl)-5-(1H-pyrazol-4-yl)nicotinamide] | > 100
